Like-named read-outs stand apart in the source and are kept apart here.
Assays:
[1] = 20° C., cited from earlier work
[2] = tested on: Black nightshade (Solanum nigrum L.; SOLNI); conditions: Dicamba DMA-salt, Banvel, 16 DAT
Protocol: Black nightshade (Solanum nigrum L.; SOLNI) was grown in a growth chamber under 14 h of light, at 18/12 (±0.5) ° C. (day/night) temperature, and in 70/80 (±5)% (day/night) relative humidity. Light was provided by high-pressure mercury lamps and fluorescent tubes to give 250 pmol m^−2 s^−1 at leaf level. The plants were grown in 11-cm-diam plastic pots filled with a mixture of sand and humic potting soil (1:2 by volume). The pots were placed on subirrigation matting, which was wetted daily with a half-strength nutrient solution. After emergence, the seedlings were thinned to one plant per pot for the efficacy experiments. Black nightshade was treated at the four-leaf stage. The fresh weights of the plants were measured 16 days after treatment (16 DAT).
The treatment solutions were applied with an air-pressured laboratory track sprayer having 1.2-mm nozzles fitted with a perforated (0.6 mm) whirling pin and delivering 200 L/ha at 303 kPa.
The experiment was conducted with four replicates per experiment according to a completely randomized design.

[3] = tested on: Wild oat (Avena fatua L.; AVEFA); experiment: adjuvant for Fenoxaprop-P-ethyl test; assay type: in vivo; conditions: Puma EW, 21 DAT
Protocol: In this test the performance with Fenoxaprop-P-ethyl was looked at. Plant material. […] After emergence, the seedlings were thinned to four plants per pot for the efficacy experiments. The plants were treated at the three-leaf stage. The fresh weights of the plants were measured 21 days after treatment (21 DAT). […] The following herbicide was included in the treatment solutions: Fenoxaprop-P-ethyl, Puma EW formulation, 69 g a.i./L. […] Demineralized water was used as the carrier.

[4] = sub-optimal rate + N,N-bis(3-(dimethylamino)propyl)octanamide 0.25% (w/v)
[5] = sub-optimal rate, no adjuvant, average of four replicates

| SMILES | log Kow ([1]; at pH 7) | Fresh Weight SOLNI (g) Herbicide + Adjuvant [2, 4] | Fresh weight SOLNI (g) Only herbicide [2, 5] | Fresh Weight Wild Oat (g) Herbicide + Compound [3, 4] | Fresh weight Wild Oat (g) Only herbicide [3, 5] | log Kow ([1]; no pH given) |
| --- | --- | --- | --- | --- | --- | --- |
| COc1c(Cl)ccc(Cl)c1C(=O)O [Dicamba] | −1.9 | 6.7 g | 10.8 g |  |  |  |
| CCOC(=O)[C@@H](C)Oc1ccc(Oc2nc3ccc(Cl)cc3o2)cc1 [Fenoxaprop-P-ethyl] |  |  |  | 1.4 g | 16.4 g | 4.3 |

Reference: patent publication US9992994B2, “Agricultural and detergent compositions containing a tertiary amide as adjuvant or as surfactant” (Taminco BVBA, priority 2011, dated 2018)
